EP0526840B1, “Condensed naphthyridine derivatives” (KYOWA HAKKO KOGYO CO., LTD., priority 1991, dated 1993)
pIC50: −log10 of the molar value.

Legend:
[1] = tested on: tracheae; experiment: Passive Schultz-Dale (S-D) reaction, relaxation of antigen-contracted tracheal strips; design: species or system Hartley guinea pigs; conditions: Cavia porcellus; concentration of 50% relaxation rate; passively sensitized guinea pig tracheal strips contracted with egg white albumin 1 µg/ml
Protocol: Male Hartley guinea pigs weighing 350 to 500 g were passively sensitized by intraperitoneal injection of rabbit anti-OA serum prepared in advance by the method of Koda et al. [Folia Pharmacol., Japon 66, 237, (1970)]. After 24 hours, the guinea pigs were stunned and exsanguinated, and then tracheae were removed. The zig-zag strips of the tracheae were prepared by the method of Emmerson and Mackay [J. Pharm. Pharmacol., 31, 798, (1979)]. The strips were suspended in Krebs-Henseleit solution at 37°C under aeration of a mixed gas of 95% oxygen and 5% carbon dioxide, and equilibrated for one hour. Then, antigen (egg white albumin) was introduced in the solution (final concentration; 1 µg/ml), and the contraction was measured by isotonictransducer (TD-112s, Nihon Kohden Co., Ltd.) and recorded on a recorder (Type 3066, Yokogawa-Hokushin Denki, Co., Ltd.). After the contraction curves reached a plateau, the test compounds were successively added in order to get cumulative concentration-relaxation curves. The concentration of 50% relaxation rate (IC50) was calculated from the regression line, which was obtained from the cumulative concentration-relaxation curves.

[2] = tested on: PAF-induced mortality; experiment: Inhibition effect on platelet activating factor (PAF)-induced mortality; assay type: in vivo, dd mice; conditions: Mus musculus, po, 2 h, minimum effective dose, orally, one hour before 40 µg/kg PAF intravenously, mortality two hours after PAF, read-out: Inhibition of PAF-induced mortality MED
Protocol: The experiment was performed by a minor modification of method of Carlson et al. [Agents and Actions, 21, 379 (1987)]. Groups each consisting of 10 male dd mice (weighing 28 to 32 g) were used, and 100 mg/kg of test compound or a saline (control) was orally administered. One hour after the administration of the test compound, 40 µg/kg of PAF (manufactured by Avanti Polar Lipids Co., Ltd.) were intravenously administered. Two hours after PAF injection, the mortality rate of the animals was observed. […]

[3] = Acute toxicity test; assay type: in vivo, dd-strain mice; conditions: orally administered; mortality observed for seven days
Protocol: Male dd-strain mice weighing 20 -25 g, groups each consisting of 3 animals, were used, and Compound 1 and Compound 3 were orally administered. MLD was determined by observing the mortality for seven days after the administration. MLD of both compounds were over 300 mg/kg.

[4] = tested on: hair growth; experiment: Hair growth stimulation; assay type: in vivo, C3H/HeSlc-strain mice; conditions: 16th day; applied once a day in ethanol : propyleneglycol (6 : 4); Compound 1 at 0.14 %, Compound 3 at 1.00 % (Table 4)
From the text: Effect of test compound on hair growth in mice was examined. Hair on the back of male C3H/HeSlc-strain mice aged 9 weeks, which was in the telogen of hair cycle was clipped off by an electric hair-clipper. The test compound dissolved in a solvent mixture [ethanol : propyleneglycol (6 : 4)] was uniformly applied to the hair removed area of the mice once a day. The group which received the solvent mixture alone was used as control.
Hair growth stimulation was estimated by measuring the ratio of the hair growing area to the test compound treated area by photograph. In the group having received the test comound, darkening of intraderma (indicating the formation of hair follicles) was observed on the 10th day, and then hair growth rapidly progressed.
In contrast, on the 16th day of the control group, darkening of intraderma was observed only in the part of the solvent treated area and hair growth scarcely occurred. […]

[5] = tested on: spleen cells; experiment: Plaque forming cell assay (inhibition of antibody production); assay type: cell-based, Balb/c strain mice; conditions: Mus musculus, 120 h, inhibition of antibody production (PFC count), incubated 5 days, read-out: Inhibition rate (%); for inhibition at 10 µM: 10^-5M; for inhibition at 1 µM: 10^-6M
Protocol: The plaque forming cell assay was performed by the following manner with reference to the method of Jerne [Science, 140, 405, (1963)] and the method of Yamamoto et al. [Drugs Exptl. Clin. Res., 8, 5, (1982)].
Male Balb/c strain mice (aged 7 weeks, SLC) were sensitized with 1 x 10^8 sheep red blood cells (Bio Test Research Institute), and 6 or 7 days after the sensitization, the spleen was extirpated. The cells obtained from the spleen were treated with ACT solution (tris-ammonium chloride isotonic buffer) to remove red blood cells. The cells were washed three times with an RPMI-1640 medium (Nissui Pharmaceutical Co., Ltd.). The spleen cells (1 x 10^7 cells), the test compound dissolved in dimethyl sulfoxide and sheep blood red cells (5 x 10^6) were suspended in an RPMI-1640 medium containing 10% bovine serum (Gibco Company), 2-mercaptoethanol (5 x 10^-5M), 50 µg/ml of streptomycin and 50 IU/ml of penicillin. The suspension was distributed into a microculture plate (NUNC Co., Ltd., 24 holes), and incubated for 5 days in a carbon dioxide gas incubator at 37°C.
After the termination of the incubation, the cells were transferred to a plastic test tube. The supernatant was removed by centrifugal separation (2000 rpm), and the pellet was re-suspended in 1 ml of an RPMI-1640 culture medium. The cell suspension, sheep blood red cells, and guinea pig complement (Cedarlene Institute) were incubated by the method of Cunningham [Immunology, 14, 599, (1968)], at 37°C for 1 to 2 hours. The appearing direct plaque cells (PFC count) in suspension were counted. From the resulting PFC count, the inhibition rate of the antibody production of the test compound was determined by the following formula. Inhibition rate (%) =(A - B)/(A)x 100 [formula] A : PFC count in the absence of test compound (dimethylsulfoxide alone) B : PFC count in the presence of test compound

Question: With `O=c1c2c(-c3ccccc3)n[nH]c2c2cccnc2n1-c1ccccc1` [Compound 1, 3,5-Diphenyl-1H-pyrazolo[4,3-c][1,8]naphthyridin-4(5H)-one] as the compound, how does the pIC50 [1] read?
Answer: 5.50

Question: What about the minimal effective dose [2] of the same compound?
Answer: 10 mg/kg

Question: And the MLD [3]?
Answer: over 300 mg/kg

Question: And the “Hair growing area (%) Mean ± S.D.” value [4]?
Answer: 91.5 ± 8.0%

Question: And the inhibition at 10 µM [5]?
Answer: 85.8%

Question: And the inhibition at 1 µM [5]?
Answer: 77.2%

Question: Which inhibition at 10 µM [5] does the source give for `Cc1n[nH]c2c1c(=O)n(-c1ccccc1)c1ncccc21` [Compound 2, 3-Methyl-5-phenyl-1H-pyrazolo[4,3-c][1,8]naphthyridin-4(5H)-one] here?
Answer: 92.4%

Question: And the inhibition at 1 µM [5]?
Answer: 85.8%

Question: With `CC(C)Cc1n[nH]c2c1c(=O)n(-c1ccccc1)c1ncccc21` [Compound 3, 3-Isobutyl-5-phenyl-1H-pyrazolo[4,3-c][1,8]naphthyridin-4(5H)-one] as the compound, how does the pIC50 [1] read?
Answer: 6.59

Question: What about the minimal effective dose [2] of the same compound?
Answer: 5 mg/kg

Question: What about the MLD [3] of the same compound?
Answer: over 300 mg/kg

Question: What about the “Hair growing area (%) Mean ± S.D.” value [4] of the same compound?
Answer: 91.8 ± 7.2%

Question: And the inhibition at 10 µM [5]?
Answer: 74.9%

Question: And the inhibition at 1 µM [5]?
Answer: 77.2%

Question: For `Cc1nn(C)c2c1c(=O)n(-c1ccccc1)c1ncccc21` [Compound 4, 1,3-Dimethyl-5-phenyl-1H-pyrazo1o[4,3-c][1,8]naphthyridin-4(5H)-one], which inhibition at 10 µM [5] is on record?
Answer: 81.4%

Question: With `Cn1nc(N)c2c(=O)n(-c3ccccc3)c3ncccc3c21` [Compound 6, 3-Amino-1-methyl-5-phenyl-1H-pyrazolo[4,3-c][1,8]naphthyridin-4(5H)-one] as the compound, how does the inhibition at 10 µM [5] read?
Answer: 76.5%

Question: For `Nc1c2c(=O)n(-c3ccccc3)c3ncccc3c2nn1-c1ccccc1` [Compound 7, 3-Amino-2,5-diphenyl-2H-pyrazolo[4,3-c][1,8]naphtyyridin-4(5H)-one], which inhibition at 10 µM [5] is on record?
Answer: 83.8%

Question: Which results are given for `O=c1c2c(-c3cccs3)n[nH]c2c2cccnc2n1-c1ccccc1` [Compound 10, 5-Phenyl-3-thienyl-1H-pyrazolo[4,3-c][1,8]naphthyridin-4(5H)-one]?
Answer: pIC50 [1]: 6.15; inhibition at 10 µM [5]: 83.9%; inhibition at 1 µM [5]: 57.1%

Question: Which results are given for `COc1ccc(-c2n[nH]c3c2c(=O)n(-c2ccccc2)c2ncccc32)cc1` [Compound 11, 3-(4-methoxyphenyl)-5-phenyl-1H-pyrazolo[4,3-c][1,8]naphthyridin-4(5H)-one]?
Answer: inhibition at 10 µM [5]: 99.5%; inhibition at 1 µM [5]: 26.5%
